Experimental findings from ChEMBL document CHEMBL3227945, “Synthesis of all the stereoisomers of statine (4-amino-3-hydroxy-6-methylheptanoic acid). Inhibition of pepsin activity by N-carbobenzoxy-L-valyl-L-valyl-statine derived from the four stereoisomers” (J Med Chem, 1979) are described below.

Converted amounts (≈) assume the structure as drawn.

For assay [1], the species on record is Sus scrofa. The assay can be described thus: Inhibition of porcine pepsin activity assessed as hydrolysis of N-Cbz-L-Pheylalanyl-L-Tyrosine substrate.
Assay [2] is filed under the species Sus scrofa. In words: Inhibition of porcine pepsin activity assessed as hydrolysis of 0.5% hemoglobin solution substrate after 1 hr.

As to `CC(C)CC(=O)N[C@H](C(=O)N[C@H](C(=O)N[C@@H](CC(C)C)[C@@H](O)CC(=O)N[C@@H](C)C(=O)N[C@@H](CC(C)C)[C@@H](O)CC(=O)O)C(C)C)C(C)C`, the ID50 was found to be 2 µg/mL (≈ 2.92 µM) in the assay filed under Sus scrofa [1] and 0.0052 µg/mL (≈ 0.00758 µM) in the assay listed under Sus scrofa [2].
On the same counts, the results for `CC(C)C[C@@H](NC(=O)[C@@H](NC(=O)[C@@H](NC(=O)OCc1ccccc1)C(C)C)C(C)C)[C@H](O)CC(=O)O` are 42 µg/mL (≈ 82.7 µM) and 18 µg/mL (≈ 35.5 µM).
With `CC(C)C[C@@H](NC(=O)[C@@H](NC(=O)[C@@H](NC(=O)OCc1ccccc1)C(C)C)C(C)C)[C@@H](O)CC(=O)O`, the results for the ID50 in the assay filed under Sus scrofa [1] and in the assay filed under Sus scrofa [2] were 219 µg/mL (≈ 431 µM) and 224 µg/mL (≈ 441 µM), respectively.
With `CC(C)C[C@H](NC(=O)[C@@H](NC(=O)[C@@H](NC(=O)OCc1ccccc1)C(C)C)C(C)C)[C@@H](O)CC(=O)O`, the ID50 in the assay listed under Sus scrofa [1] is 1 µg/mL (≈ 1.97 µM); in the assay listed under Sus scrofa [2] it was 0.1 µg/mL (≈ 0.197 µM).
As to `CC(C)C[C@H](NC(=O)[C@@H](NC(=O)[C@@H](NC(=O)OCc1ccccc1)C(C)C)C(C)C)[C@H](O)CC(=O)O`, the ID50 in the assay filed under Sus scrofa [1] was determined as 12 µg/mL (≈ 23.6 µM); in the assay listed under Sus scrofa [2], 21 µg/mL (≈ 41.4 µM).
